Results as given in PubChem BioAssay (NCI).
Several values for one entry are separate records, joined by “and”; a condition that tells them apart may be missing. Equal entries are not always repeated.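 Tested at 5 concentrations; 48 h exposure; 96-well plates; endpoints linearly interpolated, else capped at highest concentration. At the GI50, growth is halved. TGI denotes the concentration required for complete inhibition of growth.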

Experiments:
Assay in all cases: growth of human tumour cells (NCI), 48 h
LOX IMVI melanoma = test system: LOX IMVI melanoma
HL-60(TB) leukemia = test system: HL-60(TB) leukemia
DU-145 prostate = test system: DU-145 prostate
RXF 393 renal = test system: RXF 393 renal
A549 NSCLC = test system: A549 NSCLC
HCT-116 colon = test system: HCT-116 colon
MALME-3M melanoma = test system: MALME-3M melanoma
MCF7 breast = test system: MCF7 breast
IGROV1 ovarian = test system: IGROV1 ovarian
SF-268 CNS = test system: SF-268 CNS

Row | SMILES | GI50 (LOX IMVI melanoma) | TGI (LOX IMVI melanoma) [µM] | GI50 (HL-60(TB) leukemia) | TGI (HL-60(TB) leukemia) | GI50 (DU-145 prostate) | TGI (DU-145 prostate) [µM] | GI50 (RXF 393 renal) [µM] | TGI (RXF 393 renal) [µM] | GI50 (A549 NSCLC) | TGI (A549 NSCLC) [µM] | GI50 (HCT-116 colon) [µM] | TGI (HCT-116 colon) [µM] | GI50 (MALME-3M melanoma) [µM] | TGI (MALME-3M melanoma) [µM] | GI50 (MCF7 breast) [µM] | TGI (MCF7 breast) [µM] | GI50 (IGROV1 ovarian) | TGI (IGROV1 ovarian) [µM] | GI50 (SF-268 CNS) | TGI (SF-268 CNS) [µM]
1 | CC(=O)N[C@@H](Cc1ccc(OP(=O)(O)O)cc1)C(=O)N[C@H]1CCC(=O)N2CCC[C@@H](C(=O)NCc3ccccc3)N2C1=O | > 25 µM | > 25 | > 25 µM | > 25 µM | > 25 µM | > 25 | > 25 | > 25 | > 25 µM | > 25 | > 25 | > 25 | > 25 | > 25 | > 25 | > 25 | > 25 µM | > 25 | > 25 µM | > 25
2 | COc1ccc(OC)c(/C=C/c2ccnc3ccccc23)c1 | – | 14.4 | – | 0.977 µM | – | 13.1 | – | 2.72 | – | 14.7 | – | 8.09 | – | 21.5 | – | 17.4 | – | 17.4 | – | 18.2
3 | COc1cc(C2CC(=O)Nc3c2c(C)nn3-c2nc3ccccc3[nH]2)cc(OC)c1O (stereo unspecified) | 3.08 µM | 10.9 | 3.05 µM | 16.8 µM | 4.98 µM | 40.3 | 2.17 | 5.14 | 3.45 µM | > 40.2 | 3.45 | > 100 | 1.75 | 3.74 | 3.13 | > 100 | 2.82 µM | 7.63 | 3.83 µM | 45
4 | C/C=C(\C)C(=O)O[C@H]1C=CC(=O)O[C@H]1COC(=O)[C@H](C)O | 3.59 µM | 14.8 | 2.34 µM | 6.9 µM | 9.17 µM | 22.4 | – | 7.41 | 15.5 µM | 35.3 | 2.72 | 10.9 | 5.5 | 15.8 | 3.4 | 14.1 | 10.2 µM | 33.7 | 4.32 µM | 17.6
5 | Cc1ccsc1-c1ccc2c(c1)COC2(CCCN(C)C)c1ccc(F)cc1 (stereo unspecified) | 1.64 µM | 3.04 | 1.93 µM | 4.59 µM | 3.17 µM | 10.8 | 2.76 | 9.44 | 4.48 µM | 18.1 | 1.88 | 3.7 | 1.39 | 2.8 | 1.74 | 3.67 | 1.87 µM | 5.86 | 4.28 µM | 17.1
6 | CN(C)CCOc1ccccc1NC1=C(Cl)C(=O)C(Nc2ccccc2OCCN(C)C)=C(Cl)C1=O | 0.592 µM | 1.25 | 0.658 µM | 2.06 µM | 6.64 µM | – | 3.93 | 10.4 | > 47.3 µM | > 100 | 0.518 | 1.01 | 3.31 | 12.8 | 0.51 | 1.18 | 0.636 µM | 1.48 | 9.76 µM | 36.3
7 | O=[N+]([O-])c1ccc2c(c1)C(c1ccccc1Cl)=Nc1c(n[nH]c1-c1cccnc1)N2 | > 25 µM | > 25 | > 25 µM | > 25 µM | > 25 µM | > 25 | > 25 | > 25 | > 25 µM | > 25 | > 25 | > 25 | > 25 | > 25 | > 25 | > 25 | > 25 µM | > 25 | > 25 µM | > 25
8 | CN(C)C=Nc1c(I)cc(I)c(CCC(=O)O)c1I | > 100 µM | > 100 | 82.9 µM | > 100 µM | > 100 µM | > 100 | > 100 | > 100 | > 100 µM | > 100 | > 100 | > 100 | > 100 | > 100 | > 100 | > 100 | > 100 µM | > 100 | > 100 µM | > 100
9 | CN1C(=O)C2(c3ccccc31)C1CC3C(CO1)C1C2C3(CO)CN1C#N (stereo unspecified) | – | > 100 | – | > 100 µM | – | > 100 | – | > 100 | – | > 100 | – | > 100 | – | > 100 | – | > 100 | – | > 100 | – | > 100
10 | CCOC(=O)c1cc(NS(=O)(=O)c2ccc(C)cc2)cc(C(=O)OCC)c1 | 61.4 µM | > 100 | 26.5 µM | > 100 µM | 34.9 µM | > 100 | > 100 | > 100 | 41.4 µM | > 100 | 39.5 | > 100 | > 100 | > 100 | 28 | > 100 | 51.7 µM | > 100 | 40.4 µM | > 100
11 | COC(=O)[C@@H](C)C[C@H](Cc1ccccc1)NC(=O)c1csc([C@@H](C[C@H](C(C)C)N(C)C(=O)[C@@H](NC(=O)[C@H]2CCCN2C)C2CC2)OC(C)=O)n1 | 0.00477 µM and 0.0025 µM | > 25 | 0.000219 µM and < 0.0025 µM | 0.000738 µM and < 0.0025 µM | 0.000446 µM and 0.0025 µM | > 25 | 0.0025 | > 25 | 0.00664 µM and 0.0025 µM | > 25 | 0.000389 | – | 4.41 | > 25 | – | > 25 | 0.000823 µM and 0.0025 µM | > 25 | 0.00871 µM and 0.0025 µM | > 25
12 | COc1ccc(-c2cn(-c3cc(OC)c(OC)c(OC)c3)c(=O)[nH]2)cc1OC | > 100 µM | > 100 | > 100 µM | > 100 µM | > 100 µM | > 100 | > 100 | > 100 | > 100 µM | > 100 | > 100 | > 100 | > 100 | > 100 | > 100 | > 100 | > 100 µM | > 100 | > 100 µM | > 100
13 | [Cu+2].[NH-]C(CC(=O)O)C(=O)O.[NH-]C(CC(=O)O)C(=O)O (stereo unspecified) | > 100 µM | > 100 | > 100 µM | > 100 µM | > 100 µM | > 100 | > 100 | > 100 | 52.1 µM | > 100 | > 100 | > 100 | > 100 | > 100 | 52.3 | > 100 | > 100 µM | > 100 | > 100 µM | > 100
14 | O=c1oc2ccc(Br)cc2c(=O)n1-c1ccc(Cl)cc1F | 0.827 µM | 4.54 | 1.12 µM | 4.96 µM | 1.86 µM | 21.3 | 1.05 | 4.47 | 2.9 µM | > 94.8 | 1.14 | 4.33 | 0.664 | 3.32 | 1.66 | 10.1 | 0.61 µM | 17.2 | 0.917 µM | 9.23
15 | O=C(O)c1cn(C2CC2)c2cc(N3CCN(Cc4c(O)ccc5ccccc45)CC3)c(F)cc2c1=O | 4.67 µM | > 100 | > 100 µM | > 100 µM | 3.78 µM | > 100 | 2.68 | 8.34 | 4.03 µM | > 100 | 2.37 | 6.17 | 4.07 | > 100 | 5.63 | > 100 | 9.64 µM | > 100 | 56.8 µM | > 100
16 | NC(N)=Nc1ccc(/C=C2\C=Cc3ccccc32)cc1 | 1.63 µM | 3.02 | 2.67 µM | 5.87 µM | 2.36 µM | 5.03 | 2.14 | 5.52 | 1.87 µM | 4.63 | 1.55 | 2.93 | 4.41 | 16.5 | 0.523 | 2.37 | 2.02 µM | 5.12 | 3.12 µM | 10.9
17 | O=[N+]([O-])c1oc2ccc3ccccc3c2c1CCO | – | 9.52 | – | 13 µM | – | > 36.5 | – | 3.71 | – | 7.29 | – | > 29.7 | – | 3.84 | – | 29.5 | – | 3.56 | – | 40.5
18 | CCCN(CCC)c1ccc(C=O)c(C)c1 | 65 µM | > 100 | 30.8 µM | > 84.4 µM | 77.6 µM | > 100 | 34.3 | > 100 | 70.7 µM | > 100 | 35 | > 100 | 43.8 | > 100 | 40.8 | > 100 | 61 µM | > 100 | 68 µM | > 100
19 | Cc1sc2c(c1C)C(c1ccc(Cl)cc1)=N[C@@H](CC(=O)NCCCN1CCN(C)CC1)c1nnc(C)n1-2 | 0.362 µM | > 69.9 | 0.0583 µM | 5.7 µM | > 100 µM | > 100 | 2.08 | > 100 | 3.22 µM | > 100 | 0.579 | > 100 | 0.992 | > 100 | 0.0564 | > 100 | 0.618 µM | > 100 | 30.3 µM | > 100
20 | Nc1ncn([C@H]2C[C@H](OP(=O)(O)OC[C@H]3O[C@@H](n4cnc5c(=O)[nH]c(N)nc54)C[C@@H]3O)[C@@H](CO)O2)c(=O)n1 | 57 µM | > 100 | > 100 µM | > 100 µM | > 100 µM | > 100 | 12.2 | > 100 | 82.9 µM | > 100 | 23 | > 100 | > 100 | > 100 | 51.9 | > 100 | > 100 µM | > 100 | > 100 µM | > 100
